Where two headings read alike, the source gives them in different places.
Assays:
[1] = target: wild-type human cardiac sodium channel, hNav1.5 (late INa) (Homo sapiens, UniProt Q14524); experiment: Late INa screening assay (QPatch whole cell patch clamp); format: cell-based
Method in brief: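 Compounds tested at 1 μM final in extracellular solution against tefluthrin (10 μM)-enhanced late current. Automated patch clamp (23-25° C) on HEK293 expressing alpha subunit alone: −120 mV holding, 250 ms depolarization to −20 mV every 10 s. Read-out is percent inhibition of mean current over 225–250 ms.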

[2] = target: wild-type human cardiac sodium channel, hNav1.5 (peak INa) (Homo sapiens, UniProt Q14524); experiment: Peak INa screening assay (tonic and use-dependent block); format: cell-based
Experimental: The late sodium current (Late INa) and peak sodium current (Peak INa) assays are performed on an automated electrophysiology platform, QPatch 16× (Sophion Bioscience, Copenhagen, Denmark), which uses the whole cell patch clamp technique to measure currents through the cell membrane of up to 16 cells at a time. The assay uses an HEK293 (human embryonic kidney) cell line heterologously expressing the wild-type human cardiac sodium channel, hNav1.5, purchased from Millipore (Billerica, Mass.). No beta subunits were coexpressed with the Na channel alpha subunit. Cells are maintained with standard tissue culture procedures and stable channel expression is maintained with 400 μg/mL Geneticin in the culture medium. […] Experiments are carried out at 23-25° C. For both the Late INa and Peak INa assays, series resistance compensation is set to 100% and series resistance and whole-cell compensation are performed automatically. Currents are digitized at 25 kHz and low-pass filtered at 12 kHz and 10 kHz for the late and peak INa assays, respectively. Currents through open sodium channels are automatically recorded and stored in the Sophion Bioscience Oracle database (Sophion Bioscience, Copehagen, Denmark). Analysis is performed using QPatch Assay and database software and data are compiled in Excel. Compound stocks are routinely made by the Gilead Sample Bank in plastic vials to 10 mM in dimethyl sulfoxide (DMSO). In some cases, when compounds are not soluble in DMSO, they are made in 100% ethanol. Stocks are sonicated as necessary. […] The intracellular solution used to perfuse the inside of the cells for both the Late INa and Peak INa assays contains: 120 mM CsF, 20 mM CsCl, 5 mM EGTA, 5 mM HEPES and pH adjusted to 7.4 with CsOH. Compounds are diluted in extracellular solution to 1 μM in glass vials and then transferred to glass well plates before robotic addition to the cells. […] Compounds were also evaluated for their effect in several other assays, including their effect on Peak INa. Good separation between the concentrations of test compound to reduce late and peak INa is beneficial to enable separation of the desired effect to reduce late INa-induced electrical and mechanical dysfunction from the undesired effect to reduce peak INa, which can lead to slowing or block of conduction of electrical excitation in the heart. It is contemplated that the compounds of Formula I avoid significant block of peak INa. Since the peak INa in the cells used herein can be very large, introducing artifacts in the recording, the concentration of Na^+ in the bath can be reduced to 20 mM and a nonpermeant cation added to compensate for the Na^+ that was removed to maintain the osmolarity and ionic strength of the solution (see solution details below). Analysis of peak INa generally requires correction for rundown before determining the % block of peak current by the tested compound. […] A low stimulation frequency of 0.1 Hz was used to determine the effect of the test compound when the channel spent most of the time in the resting (closed) state and provides information about Tonic Block (TB). A higher stimulation frequency (3 Hz) was used to measure block of the channel when it spent more time in the activated and inactivated states and provided a measure of Use-Dependent Block (UDB). Use-dependent block refers to the accumulation of block with increased frequency of channel activation. Block of cardiac peak INa by compounds of this invention is increased with an increase in the frequency of stimulation from 0.1 to 1-5 Hz (frequencies encountered either in the normal heart or during tachycardia). It is therefore expected that reduction of peak INa by compounds of this invention will be greater at high heart rates, such as those during tachyarrhythmias, than at normal heart rates. […]

[3] = Microsomal stability assay, rat; format: in vitro ADME; details: metabolic stability, rat liver microsomes 0.5 mg/mL, substrate 3 uM
Experimental: (§1) The micorsomal stability assay is generally performed as follows. Format: 15 compounds (and 1 control verapamil) in 3 different species in duplicate sets Substrate: 3 uM Protein concentration: 0.5 mg/mL (for dog, rat, and human liver microsomes) Cofactor: 1×NADPH-Regenerating system Time-points: 2, 12, 25, 45, and 65 minutes [table] Sample preparation: 25 uL at each timepoint is added to plate with 225 uL quenching solution (50% MeOH, 25% ACN, 25% H2O, and 50 nM […]). After plates are vortexed, centrifuge for 30 minutes. Microsomal solutions: take 400 uL of 20 mg/mL microsomes and add to 13,680 uL 100 mM KPO4 buffer. Using an 8-channel, add 650 uL of this solution to the designated two columns on a short plate. The order should be dog microsomes in columns 1 and 2, rat microsomes in columns 3 and 4, and human microsomes in columns 5 and 6. Keep on ice before use. Place this plate in incubator 1 on the TECAN countertop.

[4] = Microsomal stability assay, dog; format: in vitro ADME; details: metabolic stability, dog liver microsomes 0.5 mg/mL, substrate 3 uM
Experimental: as §1

[5] = Microsomal stability assay, human; format: in vitro ADME; details: metabolic stability, human liver microsomes 0.5 mg/mL, substrate 3 uM
Experimental: as §1

[6] = % inhibition at 1 μM, read-out: NAv1.5*-LATE-
[7] = percent block of late INa, compound at 1 μM, 10 μM Tefluthrin, HEK293 hNav1.5, read-out: Late INa 1 μM
[8] = % inhibition at 1 μM, tonic block, read-out: NAv1.5*-PEAK-TB-
[9] = % inhibition at 1 μM, use-dependent block 3 Hz, read-out: NAv1.5*-PEAK-UDB-3 HZ-
[10] = tonic block of peak INa, 0.1 Hz, 1 μM, read-out: Peak TB 1 μM
[11] = use-dependent block of peak INa, 3 Hz, 1 μM, read-out: Peak UDB 1 μM

Chain of wild-type human cardiac sodium channel, hNav1.5 (peak INa) (Q14524 whole entry): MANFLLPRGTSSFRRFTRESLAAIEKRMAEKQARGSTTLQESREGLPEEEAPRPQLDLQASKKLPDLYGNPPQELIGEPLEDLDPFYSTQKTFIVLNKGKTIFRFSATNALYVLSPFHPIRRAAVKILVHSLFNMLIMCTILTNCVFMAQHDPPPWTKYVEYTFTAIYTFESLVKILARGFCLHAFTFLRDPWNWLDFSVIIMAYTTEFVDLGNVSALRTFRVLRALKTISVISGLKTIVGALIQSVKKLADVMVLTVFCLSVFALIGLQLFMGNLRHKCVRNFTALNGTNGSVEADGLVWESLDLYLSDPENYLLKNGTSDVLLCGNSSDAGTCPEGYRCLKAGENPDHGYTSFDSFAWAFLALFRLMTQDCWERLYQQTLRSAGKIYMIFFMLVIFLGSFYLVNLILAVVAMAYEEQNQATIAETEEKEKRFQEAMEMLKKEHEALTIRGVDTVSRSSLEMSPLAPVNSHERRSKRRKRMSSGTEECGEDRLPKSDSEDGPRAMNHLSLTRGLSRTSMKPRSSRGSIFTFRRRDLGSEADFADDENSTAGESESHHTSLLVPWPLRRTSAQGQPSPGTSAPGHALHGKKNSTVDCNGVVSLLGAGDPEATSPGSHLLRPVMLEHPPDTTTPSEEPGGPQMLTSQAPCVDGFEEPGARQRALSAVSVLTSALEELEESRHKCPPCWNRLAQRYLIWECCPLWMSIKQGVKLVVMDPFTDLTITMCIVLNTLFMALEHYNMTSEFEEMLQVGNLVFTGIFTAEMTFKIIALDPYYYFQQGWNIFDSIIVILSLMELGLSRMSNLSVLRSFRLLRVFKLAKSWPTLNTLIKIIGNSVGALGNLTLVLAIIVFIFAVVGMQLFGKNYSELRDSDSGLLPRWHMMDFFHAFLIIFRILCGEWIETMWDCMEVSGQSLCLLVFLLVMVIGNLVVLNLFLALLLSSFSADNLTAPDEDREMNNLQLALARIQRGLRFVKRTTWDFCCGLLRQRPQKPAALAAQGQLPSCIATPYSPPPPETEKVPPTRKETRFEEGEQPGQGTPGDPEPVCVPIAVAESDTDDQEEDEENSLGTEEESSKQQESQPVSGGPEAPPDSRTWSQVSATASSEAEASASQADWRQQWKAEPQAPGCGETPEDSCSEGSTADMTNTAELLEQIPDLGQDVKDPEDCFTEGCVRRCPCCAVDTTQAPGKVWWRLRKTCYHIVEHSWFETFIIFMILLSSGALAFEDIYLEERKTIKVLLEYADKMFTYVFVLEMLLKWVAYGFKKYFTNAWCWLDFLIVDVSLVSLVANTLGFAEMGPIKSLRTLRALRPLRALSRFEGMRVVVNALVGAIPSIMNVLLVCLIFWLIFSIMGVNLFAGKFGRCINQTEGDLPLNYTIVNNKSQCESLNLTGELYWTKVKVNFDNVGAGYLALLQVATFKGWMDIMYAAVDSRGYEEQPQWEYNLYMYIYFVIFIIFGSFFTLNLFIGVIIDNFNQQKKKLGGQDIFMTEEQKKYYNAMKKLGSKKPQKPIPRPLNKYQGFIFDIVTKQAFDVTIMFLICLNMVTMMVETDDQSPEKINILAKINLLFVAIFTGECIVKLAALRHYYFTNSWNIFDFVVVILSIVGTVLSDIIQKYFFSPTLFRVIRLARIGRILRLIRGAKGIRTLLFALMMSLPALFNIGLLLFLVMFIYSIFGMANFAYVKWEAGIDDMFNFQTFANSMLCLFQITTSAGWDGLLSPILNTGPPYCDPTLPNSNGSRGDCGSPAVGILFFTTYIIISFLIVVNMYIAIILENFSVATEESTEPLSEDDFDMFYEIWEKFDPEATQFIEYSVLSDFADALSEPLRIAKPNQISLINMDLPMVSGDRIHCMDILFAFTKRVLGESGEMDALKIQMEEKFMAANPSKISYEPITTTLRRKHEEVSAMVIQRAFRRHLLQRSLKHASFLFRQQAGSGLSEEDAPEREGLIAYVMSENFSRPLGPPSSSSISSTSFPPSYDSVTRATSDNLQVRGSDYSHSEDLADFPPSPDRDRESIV
Chain of wild-type human cardiac sodium channel, hNav1.5 (late INa) (Q14524 whole entry): as above

Row | MS Rat THalf [3] | MS Dog THalf [4] | MS Human THalf [5] | Compound | inhibition at 1 µM [1, 6] | inhibition at 1 µM [1, 7] | inhibition at 1 µM [2, 8] | inhibition at 1 µM [2, 9] | inhibition at 1 µM [2, 10] | inhibition at 1 µM [2, 11]
1 | 272 min | 313 min | 54 min | O=C(c1ccccn1)N1CCc2ccc(-c3ccc(C(F)(F)F)cc3)cc2C1 [IX-6, pyridin-2-yl(7-(4-(trifluoromethyl)phenyl)-3,4-dihydroisoquinolin-2(1H)-yl)methanone] |  | 62% |  |  | 28% | 37%
2 | 44 min | 114 min | > 395 min | O=c1c2cc(C#Cc3ccc(OC(F)(F)F)cc3)ccc2nnn1CCOc1ncccn1 [VII-1, 3-(2-(pyrimidin-2-yloxy)ethyl)-6-((4-(trifluoromethoxy)phenyl)ethynyl)benzo[d][1,2,3]triazin-4(3H)-one] |  | 55% |  |  | 7% | 1%
3 | 70 min | 167 min | 205 min | COc1ccnc(Cn2ncc3ccc(-c4ccc(OC(F)(F)F)cc4)cc3c2=O)n1 [III-30, 2-((4-methoxypyrimidin-2-yl)methyl)-7-(4-(trifluoromethoxy)phenyl)phthalazin-1 (2H)-one] |  | 56% |  |  | 11% | 12%
4 | 62 min | 56 min | 152 min | O=c1c2cc(-c3ccc(OC(F)(F)F)cc3)ccc2cnn1CCOc1ccccn1 [III-40, 2-(2-(pyridin-2-yloxy)ethyl)-7-(4-(trifluoromethoxy)phenyl)phthalazin-1 (2H)-one] |  | 51% |  |  | 4% | 2%
5 | 12 min | 16 min | 20 min | Cc1ccnn1CCn1ncc2ccc(-c3ccc(OC(F)(F)F)cc3)cc2c1=O [III-32, 2-(2-(5-methyl-1H-pyrazol-1-yl)ethyl)-7-(4-(trifluoromethoxy)phenyl)phthalazin-1 (2H)-one] |  | 53% |  |  | 18% | 23%
6 | 24 min | 31 min | 54 min | CC(Cn1ncc2ccc(-c3ccc(OC(F)(F)F)cc3)cc2c1=O)n1cccn1 (stereo not drawn) [III-38, 2-(2-(1H-pyrazol-1-yl)propyl)-7-(4-(trifluoromethoxy)phenyl)phthalazin-1 (2H)-one] |  | 52% |  |  | 9% | 11%
7 | 14 min | 74 min | 35 min | C[C@@H]1CC[C@@H](C)N1C(=O)N1CCc2ccc(-c3ccc(C(F)(F)F)cc3)cc2C1 [IX-105] | 43% | 43% | 6% | 3% | 6% | 3%

More lines, now with the values behind:

Row | Compound | MS Rat THalf [3] | MS Dog THalf [4] | MS Human THalf [5] | inhibition at 1 µM [1, 6] | inhibition at 1 µM [1, 7] | inhibition at 1 µM [2, 8] | inhibition at 1 µM [2, 9] | inhibition at 1 µM [2, 10] | inhibition at 1 µM [2, 11]
8 | COC(=O)C1(Cn2nnc3ccc(-c4ccc(OC(F)(F)F)cc4)cc3c2=O)CC1 [II-55, methyl 1-((4-oxo-6-(4-(trifluoromethoxy)phenyl)benzo[d][1,2,3]triazin-3 (4H)-yl)methyl)cyclopropanecarboxylate] | 2 min | 2 min | 14 min | 58% | 58% | 7% | 3% | 7% | 3%
9 | O=c1c2cc(-c3ccc(OC(F)(F)F)cc3)ccc2nnn1CC1(CO)CC1 [II-75, 3-((1-(hydroxymethyl)cyclopropyl)methyl)-6-(4-(trifluoromethoxy)phenyl)benzo[d][1,2,3]triazin-4(3H)-one] | 75 min | 85 min | 371 min |  | 53% |  |  | 11% | 7%
10 | O=c1c2cc(-c3ccc(OC(F)(F)F)cc3)ccc2nnn1Cc1ncccn1 [II-24, 3-(pyrimidin-2-ylmethyl)-6-(4-(trifluoromethoxy)phenyl)benzo[d][1,2,3]triazin-4(3H)-one] | 324 min | 219 min | > 395 min |  | 60% |  |  | 19% | 24%
11 | O=C1c2cc(-c3ccc(OC(F)(F)F)cc3)ccc2SCN1Cc1ncccc1F [Compound X-9, 3-((3-fluoropyridin-2-yl)methyl)-6-(4-(trifluoromethoxy)phenyl)-2H-benzo[e][1,3]thiazin-4(3H)-one] | 47 min | 75 min | 70 min |  | 67% |  |  | 39% | 31%
12 | Cc1cc(C)n(CC2(Cn3nnc4ccc(-c5ccc(OC(F)(F)F)cc5)cc4c3=O)CC2)n1 [II-64, 3-((1-((3,5-dimethyl-1H-pyrazol-1-yl)methyl)cyclopropyl)methyl)-6-(4-(trifluoromethoxy)phenyl)benzo[d][1,2,3]triazin-4(3H)-one] | 16 min | 7 min | 11 min |  | 43% |  |  | 3% | 9%
13 | COc1cc(OC)nc(Cn2nnc3ccc(-c4ccc(OC(F)(F)F)cc4)cc3c2=O)n1 [II-44, 3-((4,6-dimethoxypyrimidin-2-yl)methyl)-6-(4-(trifluoromethoxy)phenyl)benzo[d][1,2,3]triazin-4(3H)-one] | 97 min | 283 min | 167 min |  | 47% |  |  | 10% | 4%
14 | O=c1c2cc(-c3ccc(Oc4ccc(Cl)cc4)cc3)ccc2nnn1CCn1cccn1 [II-29, 3-(2-(1H-pyrazol-1-yl)ethyl)-6-(4-(4-chlorophenoxyl)phenyl)benzo[d][1,2,3]triazin-4(3H)-one] | 27 min | 99 min | 51 min |  | 52% |  |  | 44% | 67%
15 | Cc1cnc(Cn2nnc3ccc(-c4ccc(OC(F)(F)F)cc4)cc3c2=O)o1 [II-96, 3-((5-methyloxazol-2-yl)methyl)-6-(4-(trifluoromethoxy)phenyl)benzo[d][1,2,3]triazin-4(3H)-one] | 34 min | 81 min | 84 min |  | 51% |  |  | 10% | 5%

Reference: patent US20150329558A1, “FUSED HETEROCYCLIC COMPOUNDS AS ION CHANNEL MODULATORS” (Gilead Sciences, Inc., priority 2011, published 2015)
